Key:
[1] = Pilot study: oral daily Kneller's Trione in men, plasma sex hormone profile; type: in vivo, human; conditions: for change of testosterone-to-estradiol ratio: 14 days, ending vs starting ratio; for TOTAL TESTOSTERONE / ESTRADIOL / DHT: person
Method: The first study subject was a person who was dosed once per day orally with 25 mg per day of Kneller's Trione.
The second study subject was a person who was dosed once per day orally with 50 mg per day of Kneller's Trione.
The third study subject was a person who was dosed once per day orally with 100 mg per day of Kneller's Trione.

[2] = Pilot study: adverse events and safety observations in study subjects; type: in vivo, human

SMILES: C[C@]12CCC(=O)C[C@@H]1C(=O)C[C@@H]1[C@@H]2CC[C@]2(C)C(=O)CC[C@@H]12 [Kneller's Trione, 5α-androstane-3,6,17-trione]
- change of testosterone-to-estradiol ratio ([1]; 25 mg daily oral): 130%
- change of testosterone-to-estradiol ratio ([1]; 50 mg daily oral): 28%
- effect on bioavailable testosterone level ([1]; 250 mg per day oral): raised
- effect on total testosterone level ([1]; 250 mg per day oral): raised
- effect on bioavailable testosterone level ([1]; 500 mg per day oral): raised
- effect on total testosterone level ([1]; 500 mg per day oral): raised
- added benefits with high dosage ([1]; 750 mg per day oral): no added benefits were seen
- changes in plasma estradiol levels in men ([1]; general statement): no changes outside the accepted normal limits
- effect on plasma testosterone levels in men ([1]; general statement): substantial and significant increases
- increase of plasma free testosterone levels ([1]; oral administration): more than 100%
- TOTAL TESTOSTERONE ([1]; 25 mg per day oral, single dose, DAY 7 (baseline 6,290 pg/mL)): 6,400 pg/mL
- ESTRADIOL ([1]; 25 mg per day oral, DAY 7 (baseline 47 pg/mL)): 28 pg/mL
- DHT ([1]; 25 mg per day oral, DAY 7 (baseline 42 ng/dL)): 36 ng/dL
- ESTRADIOL ([1]; 25 mg per day oral, DAY 14 (baseline 47 pg/mL)): 23 pg/mL
- DHT ([1]; 25 mg per day oral, DAY 14 (baseline 42 ng/dL)): 49 ng/dL
- TOTAL TESTOSTERONE ([1]; 50 mg per day oral, single dose, DAY 7 (baseline 8,570 pg/mL)): 11,000 pg/mL
- ESTRADIOL ([1]; 50 mg per day oral, DAY 7 (baseline 36 pg/mL)): 35 pg/mL
- DHT ([1]; 50 mg per day oral, DAY 7 (baseline 47 ng/dL)): 46 ng/dL
- ESTRADIOL ([1]; 50 mg per day oral, DAY 14 (baseline 36 pg/mL)): 36 pg/mL
- TOTAL TESTOSTERONE ([1]; 50 mg per day oral, DAY 14 (baseline 8,570 pg/mL)): 11,000 pg/mL
- DHT ([1]; 50 mg per day oral, DAY 14 (baseline 47 ng/dL)): 49 ng/dL
- ESTRADIOL ([1]; 100 mg per day oral, DAY 7 (baseline 46 pg/mL)): 44 pg/mL
- DHT ([1]; 100 mg per day oral, DAY 7 (baseline 35 ng/dL)): 48 ng/dL
- ESTRADIOL ([1]; 100 mg per day oral, DAY 14 (baseline 46 pg/mL)): 34 pg/mL
- DHT ([1]; 100 mg per day oral, DAY 14 (baseline 35 ng/dL)): 41 ng/dL
- adverse event causing the subject to withdraw ([2]; 750 mg per day oral): priaprism
- other adverse events noted by any study subject ([2]; oral daily dosages 25 mg to 750 mg): No other adverse events
